Assay results: article PMC5209314, “Purification and characterization of a novel glutamate dehydrogenase from Geotrichum candidum with higher alcohol and amino acid activity” (AMB Express, 2017)
One block for each molecule: values may come before it.

Assays:
Assay type in all cases: biochemical
[1] = biological target: T1, glutamate dehydrogenase (GDH) from Geotrichum candidum S12 (Geotrichum candidum, UniProt A0A023RBK5); assay: activity towards hexanol, GC; conditions: 0.3 mmol/L NAD+, 9.8 mmol/L hexanol, pH 4.0, 30 °C
T1 construct: identified by PMF similarity to Yaliof17820p (Yarrowia homologue)

[2] = biological target: T1, glutamate dehydrogenase (GDH) from Geotrichum candidum S12; assay: activity towards hexanol, GC; conditions: read-out: Relative activity (%)^a
Text: activity towards hexanol, GC on glutamate dehydrogenase (GDH) from Geotrichum candidum S12

[3] = biological target: T1, glutamate dehydrogenase (GDH) from Geotrichum candidum S12; assay: residual activity towards hexanol, GC; conditions: read-out: Relative activity (%)^a
Text: residual activity towards hexanol, GC on glutamate dehydrogenase (GDH) from Geotrichum candidum S12

T1 sequence (A0A023RBK5 1-452): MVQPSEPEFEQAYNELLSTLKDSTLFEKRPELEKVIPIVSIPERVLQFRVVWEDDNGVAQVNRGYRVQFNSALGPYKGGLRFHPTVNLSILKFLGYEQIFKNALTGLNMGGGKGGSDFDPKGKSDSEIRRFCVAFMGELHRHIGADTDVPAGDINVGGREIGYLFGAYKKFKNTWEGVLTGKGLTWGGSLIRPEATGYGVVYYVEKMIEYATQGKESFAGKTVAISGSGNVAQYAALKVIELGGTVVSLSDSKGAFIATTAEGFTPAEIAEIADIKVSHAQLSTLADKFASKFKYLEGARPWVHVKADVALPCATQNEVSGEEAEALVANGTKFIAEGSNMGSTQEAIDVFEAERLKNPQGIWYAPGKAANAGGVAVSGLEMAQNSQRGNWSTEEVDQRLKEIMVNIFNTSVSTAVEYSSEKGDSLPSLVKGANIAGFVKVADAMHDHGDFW

SMILES: NC(=O)c1ccc[n+]([C@@H]2O[C@H](COP(=O)(O)OP(=O)(O)OC[C@H]3O[C@@H](n4cnc5c(N)ncnc54)[C@H](O)[C@@H]3O)[C@@H](O)[C@H]2O)c1 [NAD^+]
activity towards hexanol, GC [1]: the enzyme could use NADP^+ and NAD^+ as a hydrogen acceptor of hexanol

activity at 1000 µM [2]: 138 ± 3.72%
SMILES: Nc1ncnc2c1ncn2[C@@H]1O[C@H](COP(=O)(O)OP(=O)(O)O)[C@@H](O)[C@H]1O [ADP]

activity at 1000 µM [3]: 14.3 ± 0.84%
SMILES: Nc1ncnc2c1ncn2[C@@H]1O[C@H](COP(=O)(O)OP(=O)(O)OP(=O)(O)O)[C@@H](O)[C@H]1O [ATP]
